For one data set, the system named is SARS-CoV S pseudovirus. The data set can be described thus: microbe, parasite or virus in culture. Format: cell-based. Conditions: Severe acute respiratory syndrome coronavirus; for EC90: Huh-7, read-out: SARS-CoV S pseudovirus EC90; for EC50: Huh-7, read-out: SARS-CoV S pseudovirus EC50.
The subject of the next data set is SARS-CoV-2 (WIV04). It counts as cell-based.
Data set [1] deals with SARS2-S pseudovirus. The data set can be described thus: microbe, parasite or virus in culture. The following applies: Huh-7, 48 h; for EC90: read-out: SARS2-S pseudovirus EC90; for EC50: read-out: SARS2-S pseudovirus EC50.
Data set [2] concerns SARS2-S pseudovirus. The data set can be described thus: in vitro. Conditions: human.
The test system of the next data set is VSV-G pseudovirus. The data set can be described thus: microbe, parasite or virus in culture. It counts as cell-based. Conditions: Huh-7, read-out: VSV-G pseudovirus EC50.
The nature of the next data set: in vitro. The following applies: human.
The test system of data set [3] is SARS2-S pseudovirus. The following applies: Huh-7 cells, screening at 20 µM.
In another data set the test system is COVID-19. Conditions: critically ill patients; cited from earlier work.
[4] abbreviates: Huh-7 CC50, Table 2, mean ± SEM from two independent experiments.

Entries after “also recorded” stand apart in the source; their conditions may differ.

As a reminder, the EC90 is the concentration at which the effect reaches the 90% level. Turning to `CCCCc1oc2ccccc2c1C(=O)c1cc(I)c(OCCN(CC)CC)c(I)c1` [Amiodarone], the values for the EC90 in the data set with SARS-CoV S pseudovirus and in the data set on SARS2-S pseudovirus [1] were over 20 µM and 19.4 µM, respectively. The “Activity against native SARS-CoV-2 replication (in words)” value in the data set with SARS-CoV-2 (WIV04) was “significantly inhibited SARS2 replication”.
As usually defined, the EC50 is the concentration giving half of the maximal effect. In the case of `CN1CCCC(n2nc(Cc3ccc(Cl)cc3)c3ccccc3c2=O)CC1` (stereo not drawn) [Azelastine], the selectivity ratio in the data set on SARS2-S pseudovirus [2] was over 11.3. The EC50 was 2.36 ± 1.57 µM in the data set with SARS-CoV S pseudovirus, over 20 µM with VSV-G pseudovirus and 1.81 µM in the data set on SARS2-S pseudovirus [1]. The EC90 in the data set on SARS-CoV S pseudovirus is over 20 µM; in the data set with SARS2-S pseudovirus [1] it was 5.63 µM. In the data set on SARS-CoV-2 (WIV04), the “Activity against native SARS-CoV-2 replication (in words)” value is “significantly inhibited SARS2 replication”. In “in vitro” (setting [4]), this compound had a CC50 of over 20 µM.
In the case of `COc1cc(Nc2c(C#N)cnc3cc(OCCCN4CCN(C)CC4)c(OC)cc23)c(Cl)cc1Cl` [Bosutinib], the selectivity ratio with SARS2-S pseudovirus [2] came to 13.6. The EC50 is 1.04 ± 0.05 µM in the data set with SARS-CoV S pseudovirus, 5.07 µM in the data set on VSV-G pseudovirus and 1.3 µM in the data set on SARS2-S pseudovirus [1]. Moreover, the values for the EC90 with SARS-CoV S pseudovirus and in the data set with SARS2-S pseudovirus [1] were 3.15 ± 0.01 µM and 1.56 µM, respectively. For the same compound, in the data set with SARS-CoV-2 (WIV04), the “Activity against native SARS-CoV-2 replication (in words)” value is reported as “significantly inhibited SARS2 replication”. Also, the CC50 in the data set “in vitro” (setting [4]) came to 13.6 ± 2.16 µM.
With `CN(C)CC/C=C1/c2ccccc2Sc2ccc(Cl)cc21` [Chlorprothixene], the selectivity ratio in the data set with SARS2-S pseudovirus [2] was over 11.9. In addition, in the data set with SARS-CoV-2 (WIV04), the “Activity against native SARS-CoV-2 replication (in words)” value is reported as “failed to show activity; also recorded: no anti-SARS-CoV-2 activity”. In addition, the EC50 in the data set on VSV-G pseudovirus was over 20 µM; in the data set on SARS2-S pseudovirus [1], 2.15 µM. In addition, the EC90 in the data set on SARS2-S pseudovirus [1] turned out to be 23.8 µM.
`CN(C)[C@@H](CCOc1cccc2ccccc12)c1ccccc1` [Dapoxetine]: in the data set on SARS2-S pseudovirus [2], the selectivity ratio came out at 13.1. Besides, the EC50 with VSV-G pseudovirus was 18.9 µM. For the same compound, in the data set with SARS2-S pseudovirus [1], the EC50 is 1.19 µM and the EC90 amounted to 18 µM.
For `OCCN1CCN(CCC=C2c3ccccc3Sc3ccc(C(F)(F)F)cc32)CC1` [Flupenthixol], in the data set with SARS2-S pseudovirus [2], the selectivity ratio was 11.7. Besides, the results for the EC50 in the data set on SARS-CoV S pseudovirus, in the data set with VSV-G pseudovirus and with SARS2-S pseudovirus [1] were 1.39 ± 0.35 µM, 17.9 µM and 1.45 µM, respectively. Also, the EC90 turned out to be 10.8 ± 1.05 µM with SARS-CoV S pseudovirus and 8.68 µM in the data set on SARS2-S pseudovirus [1]. The “Activity against native SARS-CoV-2 replication (in words)” value in the data set with SARS-CoV-2 (WIV04) is on record as “significantly inhibited SARS2 replication”. In addition, in “in vitro” (setting [4]), the CC50 was 14.7 ± 3.28 µM.
Take `COc1cc2ncnc(Nc3ccc(F)c(Cl)c3)c2cc1OCCCN1CCOCC1` [Gefitinib]: the EC90 in the data set on SARS2-S pseudovirus [1] came out at 20.3 µM.
Turning to `CNCCC=C1c2ccccc2CCc2ccccc21` [Nortriptyline], the selectivity ratio in the data set on SARS2-S pseudovirus [2] was 14.5. The “Activity against native SARS-CoV-2 replication (in words)” value in the data set with SARS-CoV-2 (WIV04) is “failed to show activity”. The EC50 with VSV-G pseudovirus came to 17.2 µM. Besides, the CC50 in “in vitro” (Huh7 CC50) is 16.8 µM. Also, in the data set on SARS2-S pseudovirus [1], the EC50 was found to be 1.06 µM and the EC90 was determined as 5.26 µM.
Turning to `OCCN1CCN(CCCN2c3ccccc3Sc3ccc(Cl)cc32)CC1` [Perphenazine], in the data set on SARS2-S pseudovirus [2], the selectivity ratio came to 14.7. Further, the “Activity against native SARS-CoV-2 replication (in words)” value in the data set with SARS-CoV-2 (WIV04) is “failed to show activity”. Further, the EC50 in the data set with VSV-G pseudovirus was over 20 µM. In the data set with SARS2-S pseudovirus [1], the EC50 came out at 2.14 µM and the EC90 is over 20 µM.
Regarding `CC(CN1c2ccccc2Sc2ccccc21)N(C)C` (stereo not drawn) [Promethazine], the selectivity ratio in the data set on SARS2-S pseudovirus [2] was over 20.8. Moreover, in the data set on SARS-CoV-2 (WIV04), the “Activity against native SARS-CoV-2 replication (in words)” value was “failed to show activity”. The EC50 with VSV-G pseudovirus is over 20 µM. In addition, in the data set on SARS2-S pseudovirus [1], the EC50 is 0.96 µM and the EC90 is 18.2 µM.
Take `CNCCCC1c2ccccc2C=Cc2ccccc21` [Protriptyline]: the selectivity ratio in the data set with SARS2-S pseudovirus [2] was over 13.5. Also, the EC50 in the data set on VSV-G pseudovirus is over 20 µM; with SARS2-S pseudovirus [1], 1.68 µM. This compound also had a CC50 in the data set “in vitro” (Huh7 CC50) of over 20 µM. For the same compound, the EC90 with SARS2-S pseudovirus [1] turned out to be 7.21 µM.
For the compound `O=C(O[C@H]1CN2CCC1CC2)N1CCc2ccccc2[C@@H]1c1ccccc1` [Solifenacin], in the data set on SARS2-S pseudovirus [2], the selectivity ratio was over 9.66. The EC50 in the data set on VSV-G pseudovirus was over 20 µM. In addition, in the data set on SARS2-S pseudovirus [1], the EC50 is 2.03 µM and the EC90 amounted to 8.98 µM.
For the compound `CN(C)CCOc1ccc(/C(=C(/CCCl)c2ccccc2)c2ccccc2)cc1` [Toremifene], the selectivity ratio in the data set on SARS2-S pseudovirus [2] amounted to 8.92. For the same compound, the results for the EC50 in the data set on SARS-CoV S pseudovirus, in the data set on VSV-G pseudovirus and in the data set with SARS2-S pseudovirus [1] were 2.28 ± 1.09 µM, 17.7 µM and 1.92 µM, respectively. Further, the EC90 with SARS-CoV S pseudovirus was over 20 µM; in the data set on SARS2-S pseudovirus [1] it was 13 µM. Also, in the data set with SARS-CoV-2 (WIV04), the “Activity against native SARS-CoV-2 replication (in words)” value is reported as “significantly inhibited SARS2 replication”. The compound also came in with a CC50 in “in vitro” (setting [4]) of over 20 µM.
In the case of `CC(CN(C)C)CN1c2ccccc2Sc2ccccc21` (stereo not drawn) [Trimeprazine], the selectivity ratio with SARS2-S pseudovirus [2] stood at 14.2. Also, the values for the EC50 with SARS-CoV S pseudovirus, with VSV-G pseudovirus and with SARS2-S pseudovirus [1] were 0.66 ± 0.45 µM, 5.87 µM and 0.97 µM, respectively. The EC90 with SARS-CoV S pseudovirus worked out at 4.3 ± 0.48 µM; with SARS2-S pseudovirus [1], 3.77 µM. In addition, the “Activity against native SARS-CoV-2 replication (in words)” value with SARS-CoV-2 (WIV04) is listed as “significantly inhibited SARS2 replication”. In addition, the CC50 in the data set “in vitro” (setting [4]) is 16.7 ± 1.89 µM.
Consider `CN(C)CCCN1c2ccccc2Sc2ccc(Cl)cc21` [chlorpromazine], for which the “Activity in SARS2-S pseudovirus screening (in words)” value in the data set on SARS2-S pseudovirus [3] is on record as “limited toxicity/activity window”.
Still for that read-out and setting: as for `Cc1ccc(NC(=O)c2ccc(CN3CCN(C)CC3)cc2)cc1Nc1nccc(-c2cccnc2)n1` [imatinib], the entry is “weak activity”.
Consider `CCC(CC)COC(=O)[C@H](C)N[P@](=O)(OC[C@H]1O[C@@](C#N)(c2ccc3c(N)ncnn23)[C@H](O)[C@@H]1O)Oc1ccccc1` [remdesivir], for which, in the data set with COVID-19, the “Improvement of oxygen support” value was 68%.

(Values after article PMC7594953 (Acta Pharmacologica Sinica, 2020).)
